A word on the AC50: it is the midpoint of the concentration-response curve, whichever way the signal moves.

One assay addresses T1, human PAH with the R408W mutation (Homo sapiens, UniProt P00439, R408W).
T1 construct: expressed in transfected cells
T1 sequence (P00439 1-452 R408W): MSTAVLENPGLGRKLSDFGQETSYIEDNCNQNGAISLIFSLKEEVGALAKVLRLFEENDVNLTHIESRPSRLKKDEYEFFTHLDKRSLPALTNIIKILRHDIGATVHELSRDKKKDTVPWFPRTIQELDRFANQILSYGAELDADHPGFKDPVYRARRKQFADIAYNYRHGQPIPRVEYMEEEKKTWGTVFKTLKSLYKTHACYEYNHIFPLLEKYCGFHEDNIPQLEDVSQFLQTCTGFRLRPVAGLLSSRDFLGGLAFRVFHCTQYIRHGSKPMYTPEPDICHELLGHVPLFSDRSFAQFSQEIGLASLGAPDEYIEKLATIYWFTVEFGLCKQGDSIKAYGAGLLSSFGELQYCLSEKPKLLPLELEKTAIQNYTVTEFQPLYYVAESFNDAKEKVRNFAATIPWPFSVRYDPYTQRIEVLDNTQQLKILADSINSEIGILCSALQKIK
The experiment in a line: Cell Based Phenylalanine Flux Assay.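 Further: after compound treatment, cells received sepiapterin plus isotope-labelled Phenylalanine for 4 hours, then labelled Tyrosine in the medium was quantified, 10-point 2-fold dilution series run in duplicate.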 The note with it: A375 cells expressing R408W PAH; 24 hrs with compound, then 20 µM sepiapterin and 800 µM 13C9,15N-Phenylalanine for 4 hours; 13C-Tyrosine by LC-MS; average where tested multiple times; read-out: AC50.
For the compound `Cc1ccn2nc(C3c4nc[nH]c4CCN3C(=O)c3nnc(C(C)(C)O)o3)cc2c1` (stereo not shown), the AC50 was in the range of 1000 to 5000 nM.
On the same count and under the same terms, the result for `Cc1cccn2nc(C3c4nc[nH]c4CCN3C(=O)c3ccnn3C(F)F)cc12` (stereo not shown) reads 1000 to 5000 nM; that for `c1ccn2nc([C@@H]3c4nc[nH]c4CCN3c3nnc(N4CCOCC4)o3)cc2c1` (single isomer, unassigned), over 5000 nM; that for `Cn1ncnc1C(=O)N1CCc2[nH]cnc2C1c1cc2cccc(Cl)n2n1` (stereo not shown), 1000 to 5000 nM.
The same measure, in the same setting: under `O=C(c1nnc(C2CC2)o1)N1CCc2[nH]cnc2C1c1cc2cc(C(F)(F)F)ccn2n1` (stereo not shown) stands 1000 to 5000 nM.
On the same count and under the same terms, the result for `CC(C)(O)c1ncc(C(=O)N2CCc3[nH]cnc3[C@H]2c2cc3cccc(Cl)n3n2)o1` (single isomer, unassigned) reads 1000 to 5000 nM; that for `FC(F)c1nnc(N2CCc3[nH]cnc3C2c2cc3cccc(C(F)(F)F)n3n2)o1` (stereo not shown), 1000 to 5000 nM.
On to `O=C(c1cnco1)N1CCc2[nH]cnc2C1c1cc2cc(C(F)(F)F)ccn2n1` (stereo not shown), for which the AC50 was in the range of 1000 to 5000 nM.
The same measure, in the same setting: under `CN(C)C(=O)c1nnc(N2CCc3[nH]cnc3C2c2cc3c(C(F)F)cccn3n2)o1` (stereo not shown) stands 1000 to 5000 nM; under `Fc1cccn2nc(C3c4nc[nH]c4CCN3c3nnc(-c4cccnc4)o3)cc12` (single isomer, unassigned), 1000 to 5000 nM.
As to `Cc1nnc(C(=O)N2CCc3[nH]cnc3C2c2cc3cc(C(F)(F)F)ccn3n2)o1` (stereo not shown), the AC50 is 1000 to 5000 nM.
Same read-out and setting: the result for `Clc1cccc2cc(C3c4nc[nH]c4CCN3c3nnc(C4CCC4)o3)nn12` (stereo not shown) reads 1000 to 5000 nM.

The same assay, now with this note: A375 cells expressing human PAH R408W; 24 hrs compound incubation; 13C-Tyrosine by LC-MS; average where tested multiple times; read-out: AC50.
Consider `CC(C)c1cccn2nc([C@@H]3c4nc[nH]c4CCN3C(=O)c3nnc(C(C)(C)F)o3)cc12` [Example 1884, (S)-(5-(2-fluoropropan-2-yl)-1,3,4-oxadiazol-2-yl)(4-(4-isopropylpyrazolo[1,5-a]pyridin-2-yl)-1,4,6,7-tetrahydro-5H-imidazo[4,5-c]pyridin-5-yl)methanone], for which the AC50 was under 500 nM.
On the same count and under the same terms, the result for `Cc1cccn2nc([C@H]3c4nc[nH]c4CCN3c3ccc(C(F)(F)F)cn3)cc12` [Example 1940, (R)-4-(4-methylpyrazolo[1,5-a]pyridin-2-yl)-5-(5-(trifluoromethyl)pyridin-2-yl)-4,5,6,7-tetrahydro-1H-imidazo[4,5-c]pyridine] reads over 5000 nM; that for `O=C(c1nnc(-c2ccc(F)cn2)o1)N1CCc2[nH]cnc2[C@@H]1c1cc2ccccn2n1` [Example 2364, (R)-(5-(5-fluoropyridin-2-yl)-1,3,4-oxadiazol-2-yl)(4-(pyrazolo[1,5-a]pyridin-2-yl)-6,7-dihydro-1H-imidazo[4,5-c]pyridin-5(4H)-yl)methanone], over 5000 nM.
On to `O=C(c1nnc(C2CC2)o1)N1CCc2[nH]cnc2[C@H]1c1cc2c(Br)cccn2n1` [Example 1908, (S)-(4-(4-bromopyrazolo[1,5-a]pyridin-2-yl)-1,4,6,7-tetrahydro-5H-imidazo[4,5-c]pyridin-5-yl)(5-cyclopropyl-1,3,4-oxadiazol-2-yl)methanone], for which the AC50 is under 500 nM.

Staying with this assay, now noted: A375 cells expressing human R408W PAH; 24 hrs compound incubation; 13C-Tyrosine by LC-MS; average where tested multiple times; read-out: AC50.
With `O=C(c1nnc(-c2cnn(C(F)F)c2)o1)N1CCc2[nH]cnc2[C@H]1c1cc2c(C(F)(F)F)cccn2n1` [Example 906, (S)-(5-(1-(difluoromethyl)-1H-pyrazol-4-yl)-1,3,4-oxadiazol-2-yl)(4-(4-(trifluoromethyl)pyrazolo[1,5-a]pyridin-2-yl)-6,7-dihydro-1H-imidazo[4,5-c]pyridin-5(4H)-yl)methanone], the AC50 is under 500 nM.
On the same count and under the same terms, under `FC(F)c1cccn2nc([C@H]3c4nc[nH]c4CCN3c3ncccn3)cc12` [Example 1763, (R)-4-(4-(difluoromethyl)pyrazolo[1,5-a]pyridin-2-yl)-5-(pyrimidin-2-yl)-4,5,6,7-tetrahydro-1H-imidazo[4,5-c]pyridine] stands 1000 to 5000 nM; under `O=C(c1nnc(-c2ccn(C(F)(F)F)n2)o1)N1CCc2[nH]cnc2[C@H]1c1cc2c(OC(F)(F)F)cccn2n1` [Example 1706, (S)-(4-(4-(trifluoromethoxy)pyrazolo[1,5-a]pyridin-2-yl)-6,7-dihydro-1H-imidazo[4,5-c]pyridin-5(4H)-yl)(5-(1-(trifluoromethyl)-1H-pyrazol-3-yl)-1,3,4-oxadiazol-2-yl)methanone], under 500 nM; under `O=C(c1ccnn1C(F)(F)F)N1CCc2[nH]cnc2[C@H]1c1cc2ccccn2n1` [Example 716, (S)-(4-(pyrazolo[1,5-a]pyridin-2-yl)-6,7-dihydro-1H-imidazo[4,5-c]pyridin-5(4H)-yl)(1-(trifluoromethyl)-1H-pyrazol-5-yl)methanone], under 500 nM.
Still for that read-out and setting: the result for `Cc1ccc2cc([C@@H]3c4nc[nH]c4CCN3C(=O)c3nnc(C4CC4)o3)nn2c1` [Example 966, (S)-(5-cyclopropyl-1,3,4-oxadiazol-2-yl)(4-(6-methylpyrazolo[1,5-a]pyridin-2-yl)-6,7-dihydro-1H-imidazo[4,5-c]pyridin-5(4H)-yl)methanone] reads 500 to 1000 nM; that for `Cc1cccn2nc([C@@H]3c4nc[nH]c4CCN3C(=O)c3nnc(-c4ccn(C)n4)o3)cc12` [Example 743, (S)-(5-(1-methyl-1H-pyrazol-3-yl)-1,3,4-oxadiazol-2-yl)(4-(4-methylpyrazolo[1,5-a]pyridin-2-yl)-6,7-dihydro-1H-imidazo[4,5-c]pyridin-5(4H)-yl)methanone], under 500 nM; that for `O=C(c1nnc(C2CC2)o1)N1CCc2[nH]cnc2[C@@H]1c1cc2c(Cl)cccn2n1` [Example 1095, (R)-(4-(4-chloropyrazolo[1,5-a]pyridin-2-yl)-6,7-dihydro-1H-imidazo[4,5-c]pyridin-5(4H)-yl)(5-cyclopropyl-1,3,4-oxadiazol-2-yl)methanone], over 5000 nM.
Same read-out and setting: under `O=C(c1nnc(-c2cccnc2)o1)N1CCc2[nH]cnc2[C@H]1c1cc2c(Cl)cccn2n1` [Example 1292, (S)-(4-(4-chloropyrazolo[1,5-a]pyridin-2-yl)-6,7-dihydro-1H-imidazo[4,5-c]pyridin-5(4H)-yl)(5-(pyridin-3-yl)-1,3,4-oxadiazol-2-yl)methanone] stands under 500 nM.
As to `Cn1nccc1C(=O)N1CCc2[nH]cnc2[C@H]1c1cc2c(F)cccn2n1` [Example 884, (S)-(4-(4-fluoropyrazolo[1,5-a]pyridin-2-yl)-6,7-dihydro-1H-imidazo[4,5-c]pyridin-5(4H)-yl)(1-methyl-1H-pyrazol-5-yl)methanone], the AC50 lay within 500 to 1000 nM.
Still for that read-out and setting: the result for `CC(C)(C)c1nnc(C(=O)N2CCc3[nH]cnc3[C@H]2c2cc3c(C(F)F)cccn3n2)o1` [Example 1409, (S)-(5-(tert-butyl)-1,3,4-oxadiazol-2-yl)(4-(4-(difluoromethyl)pyrazolo[1,5-a]pyridin-2-yl)-6,7-dihydro-1H-imidazo[4,5-c]pyridin-5(4H)-yl)methanone] reads under 500 nM; that for `COc1ccc2c(C(=O)N3CCc4[nH]cnc4[C@H]3c3cc4c(F)cccn4n3)cnn2c1` [Example 1696, (S)-(4-(4-fluoropyrazolo[1,5-a]pyridin-2-yl)-6,7-dihydro-1H-imidazo[4,5-c]pyridin-5(4H)-yl)(6-methoxypyrazolo[1,5-a]pyridin-3-yl)methanone], 500 to 1000 nM; that for `O=C(c1nnc(-c2ccn(C(F)F)n2)o1)N1CCc2[nH]cnc2[C@H]1c1cc2c(C(F)F)cccn2n1` [Example 1377, (S)-(5-(1-(difluoromethyl)-1H-pyrazol-3-yl)-1,3,4-oxadiazol-2-yl)(4-(4-(difluoromethyl)pyrazolo[1,5-a]pyridin-2-yl)-6,7-dihydro-1H-imidazo[4,5-c]pyridin-5(4H)-yl)methanone], under 500 nM.

For the origin of these results see patent US20230365592A1 (Agios Pharmaceuticals, Inc., priority 2022, published 2023).
